1 compound from US20240000942A1, “Craniofacial implant made of polyether ether ketone (PEEK) with deposits to store and release active substances or active Ingredient” (Arcosystem SPA, priority 2022, published 2024) can be followed below.

Values joined by “and” are separate entries in the source; they are usually repeats but may differ in a detail not shown here. Equal values may be shown once. “Also recorded” adds a separate entry of the source.

This data set can be described thus: Stability of the vancomycin solution within the implant reservoir (HPLC). Format: physicochemical. The procedure: For this, a time zero (To) sample corresponding to a sample that was immediately analyzed after its reconstitution was analyzed, along with a sample that was left to rest for 24 hours within the implant. In this way, results from the 24 hour time frame were compared with those of time zero as sample areas and degradation percentage at 24 hours.
Shaking up to the complete solution of the lyophilized powder, taking 0.5 mL of said ampule, and diluted with physiological saline solution up to 5 mL of final volume. This 5 mL of solution is injected in the reservoir of the implant. […] Said 0.5 mL were diluted up to 5 mL of final volume using 0.2M potassium dibasic phosphate buffer adjusted to pH 7.4. Then, using a syringe, said volume was loaded in the reservoir or capsule of the implant, the implant was then sealed and incorporated in an empty beaker. Nominal concentration of the solution within the reservoir is […].
After 24 hours, the chamber or reservoir was opened to extract the 0.5 mL of the solution contained within. Of said 0.5 mL extracted from the reservoir, a 0.1 mL aliquot is taken that then is transferred to a 100 mL flask for its analysis using HPLC, considering the same calibration and standard curves that were described for the previous example.

Regarding `CN[C@H](CC(C)C)C(=O)N[C@H]1C(=O)N[C@@H](CC(N)=O)C(=O)N[C@H]2C(=O)N[C@H]3C(=O)N[C@H](C(=O)N[C@H](C(=O)O)c4cc(O)cc(O)c4-c4cc3ccc4O)[C@H](O)c3ccc(c(Cl)c3)Oc3cc2cc(c3O[C@@H]2O[C@H](CO)[C@@H](O)[C@H](O)[C@H]2O[C@H]2C[C@](C)(N)[C@H](O)[C@H](C)O2)Oc2ccc(cc2Cl)[C@H]1O` [vancomycin], the HPLC sample area (24 hour period within the implant) is 94679 and 94744; the HPLC sample area (24 hour period within the implant, mean) amounted to 94711.5; the HPLC sample area (Time 0 (analyzed immediately after reconstitution)) was 948050 and 948671; the HPLC sample area (Time 0 (analyzed immediately after reconstitution), mean) is 948360.5. Further, where the note is “24 hours”, the “degradation of vancomycin within the implant (in words)” value is recorded as “not significant; also recorded: no indication of significative degradation”.
